Assay results taken from ChEMBL document CHEMBL4190260, “Antibiofilm potential of 16-oxo-cleroda-3, 13(14) E-diene-15 oic acid and its five new γ-amino γ-lactone derivatives against methicillin resistant Staphylococcus aureus and Streptococcus mutans” (2017).
In brackets after ≈: the same amount, converted by molar mass. Each block holds one molecule with its values, some of them ahead of it. Activity calls are given as the source filed them. The rule behind the calls is not given here.

Columns and labels:
Staphylococcus aureus [1] = experiment: Antibacterial activity against methicillin-resistant Staphylococcus aureus ATCC 43300 assessed as delay in bacterial growth at 2 times MIC after 10 mins; type: functional, organism-based
Streptococcus mutans [2] = experiment: Antibacterial activity against Streptococcus mutans ATCC 25175 measured after overnight incubation by two-fold serial dilution method; type: functional
Staphylococcus aureus [3] = experiment: Antibacterial activity against methicillin-resistant Staphylococcus aureus ATCC 43300 measured after overnight incubation by two-fold serial dilution method; type: functional
Streptococcus mutans [4] = experiment: Antibiofilm activity against Streptococcus mutans ATCC 25175 assessed as formation of broken chains at MBIC concentration by uranyl acetate-staining based electron microscopy; type: functional, organism-based
Staphylococcus aureus [5] = experiment: Antibacterial activity against methicillin-resistant Staphylococcus aureus ATCC 43300 assessed as reduction in bacterial viability at 4 to 16 ug/ml measured after 24 hrs by MTT assay; type: functional
Klebsiella pneumoniae [6] = experiment: Antibacterial activity against Klebsiella pneumoniae ATCC 13882 measured after overnight incubation by two-fold serial dilution method; type: functional
Staphylococcus aureus [7] = experiment: Bacteriostatic activity against methicillin-resistant Staphylococcus aureus ATCC 43300 assessed as log reduction in colony forming units at 15 to 20 ug/ml after 24 hrs; type: functional, organism-based
Streptococcus mutans [8] = experiment: Potency index, ratio of cefixime MIC to test compound MIC for Streptococcus mutans ATCC 25175; type: functional
Streptococcus mutans [9] = experiment: Antibiofilm activity against Streptococcus mutans ATCC 25175 measured after overnight incubation by crystal violet-staining based assay; type: functional
Streptococcus mutans [10] = experiment: Antibiofilm activity against Streptococcus mutans ATCC 25175 assessed as formation of oviod cells at MBIC concentration by uranyl acetate-staining based electron microscopy; type: functional, organism-based
Staphylococcus aureus [11] = experiment: Antibiofilm activity against methicillin-resistant Staphylococcus aureus ATCC 43300 assessed as disruption of biofilm at 10 to 12 ug/ml by fluorescence microscopy; type: functional, organism-based
Staphylococcus aureus [12] = experiment: Antibacterial activity against methicillin-resistant Staphylococcus aureus ATCC 43300 assessed as log reduction in bacterial count at 8 ug/ml measured after 24 hrs; type: functional
Streptococcus mutans [13] = experiment: Bacteriostatic activity against Streptococcus mutans ATCC 25175 assessed as log reduction in colony forming units at 12 to 16 ug/ml after 24 hrs; type: functional, organism-based
Staphylococcus aureus [14] = experiment: Bactericidal activity against methicillin-resistant Staphylococcus aureus ATCC 43300 measured after overnight incubation; type: functional
Streptococcus mutans [15] = experiment: Antibiofilm activity against Streptococcus mutans ATCC 25175 assessed as down-regulation of gtfB gene expression by semi-quantitative PCR analysis; type: functional, organism-based
Staphylococcus aureus [16] = experiment: Antibacterial activity against methicillin-resistant Staphylococcus aureus ATCC 43300 assessed as delay in bacterial growth at 4 times MIC after 10 mins; type: functional, organism-based
Streptococcus mutans [17] = experiment: Antibacterial activity against Streptococcus mutans ATCC 25175 measured assessed as reduction in bacterial viability at 5 to 20 ug/ml after 24 hrs by MTT assay; type: functional
Streptococcus mutans [18] = experiment: Antibacterial activity against Streptococcus mutans ATCC 25175 measured assessed as inhibition of colony formation at 5 to 20 ug/ml after 24 hrs; type: functional, organism-based
Streptococcus mutans [19] = experiment: Potency index, ratio of 6 amino penicillinic acid MIC to test compound MIC for Streptococcus mutans ATCC 25175; type: functional
Streptococcus mutans [20] = experiment: Antibacterial activity against Streptococcus mutans ATCC 25175 assessed as time delay in bacterial growth at MIC, 2 times MIC and 4 times MIC; type: functional
Staphylococcus aureus [21] = experiment: Antibiofilm activity against methicillin-resistant Staphylococcus aureus ATCC 43300 assessed as down-regulation of IcaA gene expression by semi-quantitative PCR analysis; type: functional, organism-based
Staphylococcus aureus [22] = experiment: Antibacterial activity against methicillin-resistant Staphylococcus aureus ATCC 43300 assessed as inhibition of colony formation at 4 to 16 ug/ml measured after 24 hrs; type: functional, organism-based
Staphylococcus aureus [23] = experiment: Potency index, ratio of gentamycin sulphate MIC to test compound MIC for methicillin-resistant Staphylococcus aureus ATCC 43300; type: functional
Streptococcus mutans [24] = experiment: Bactericidal activity against Streptococcus mutans ATCC 25175 measured after overnight incubation; type: functional
Streptococcus mutans [25] = experiment: Antibacterial activity against Streptococcus mutans ATCC 25175 assessed as log reduction in bacterial count at 10 ug/ml measured after 24 hrs relative to control; type: functional
Staphylococcus aureus [26] = experiment: Potency index, ratio of 6 amino penicillinic acid MIC to test compound MIC for methicillin-resistant Staphylococcus aureus ATCC 43300; type: functional
Staphylococcus aureus [27] = experiment: Antibiofilm activity against methicillin-resistant Staphylococcus aureus ATCC 43300 assessed as formation of oviod cells at MBIC concentration by uranyl acetate-staining based electron microscopy; type: functional, organism-based
Streptococcus mutans [28] = experiment: Antibiofilm activity against Streptococcus mutans ATCC 25175 assessed as disruption of biofilm at 10 to 12 ug/ml by fluorescence microscopy; type: functional, organism-based
Staphylococcus aureus [29] = experiment: Antibiofilm activity against methicillin-resistant Staphylococcus aureus ATCC 43300 assessed as formation of broken chains at MBIC concentration by uranyl acetate-staining based electron microscopy; type: functional, organism-based
Staphylococcus aureus [30] = experiment: Antibacterial activity against methicillin-resistant Staphylococcus aureus ATCC 43300 assessed as reduction in acid production at 0.5 times MIC and MIC measured up to 24 hrs; type: functional, organism-based
Staphylococcus aureus [31] = experiment: Potency index, ratio of cefixime MIC to test compound MIC for methicillin-resistant Staphylococcus aureus ATCC 43300; type: functional
Streptococcus mutans [32] = experiment: Antibiofilm activity against Streptococcus mutans ATCC 25175 assessed as down-regulation of gtfC gene expression by semi-quantitative PCR analysis; type: functional, organism-based
Streptococcus mutans [33] = experiment: Antibacterial activity against Streptococcus mutans ATCC 25175 assessed as reduction in acid production at 0.5 times MIC and MIC measured up to 24 hrs; type: functional, organism-based
Streptococcus mutans [34] = experiment: Antibiofilm activity against Streptococcus mutans ATCC 25175 assessed as down-regulation of luxS gene expression by semi-quantitative PCR analysis; type: functional, organism-based
Staphylococcus aureus [35] = experiment: Antibacterial activity against methicillin-resistant Staphylococcus aureus ATCC 43300 assessed as delay in bacterial growth at MIC after 10 mins; type: functional, organism-based
Staphylococcus aureus [36] = experiment: Antibiofilm activity against methicillin-resistant Staphylococcus aureus ATCC 43300 measured after overnight incubation by crystal violet-staining based assay; type: functional
Klebsiella pneumoniae [37] = experiment: Antibiofilm activity against Klebsiella pneumoniae ATCC 13882 measured after overnight incubation by crystal violet-staining based assay; type: functional
Proteus mirabilis [38] = experiment: Antibacterial activity against Proteus mirabilis ATCC 12453 measured after overnight incubation by two-fold serial dilution method; type: functional
Proteus mirabilis [39] = experiment: Antibiofilm activity against Proteus mirabilis ATCC 12453 measured after overnight incubation by crystal violet-staining based assay; type: functional
Proteus mirabilis [40] = experiment: Antibiofilm activity against Proteus mirabilis ATCC 12453 at >= 50 ug/ml measured after overnight incubation by crystal violet-staining based assay; type: functional, organism-based
Klebsiella pneumoniae [41] = experiment: Antibiofilm activity against Klebsiella pneumoniae ATCC 13882 at >= 50 ug/ml measured after overnight incubation by crystal violet-staining based assay; type: functional, organism-based

Compound: CC1=CCC[C@@H]2[C@@](C)(CC/C(C=O)=C\C(=O)O)[C@H](C)CC[C@@]12C
Activity (Staphylococcus aureus [1]): Active
MIC (Streptococcus mutans [2]): 20 µg/mL (≈ 62.8 µM)
MIC (Staphylococcus aureus [3]): 16 µg/mL (≈ 50.2 µM)
Activity (Streptococcus mutans [4]): Active
Activity (Staphylococcus aureus [5]): <=90%
MIC (Klebsiella pneumoniae [6]): inactive
Activity (Staphylococcus aureus [7]): Active
Ratio (Streptococcus mutans [8]): 5
Activity (Streptococcus mutans [9]): 92.06%
MBIC (Streptococcus mutans [9]): 20 µg/mL
Activity (Streptococcus mutans [10]): Active
Activity (Staphylococcus aureus [11]): Active
Activity (Staphylococcus aureus [12]): 9 log10CFU/ml
Activity (Streptococcus mutans [13]): Active
MBC (Staphylococcus aureus [14]): 95 µg/mL (≈ 298 µM)
Activity (Streptococcus mutans [15]): Active
Activity (Staphylococcus aureus [16]): Active
Activity (Streptococcus mutans [17]): <=90%
Activity (Streptococcus mutans [18]): Active
Ratio (Streptococcus mutans [19]): 5
Time (Streptococcus mutans [20]): >=8 hr
Activity (Staphylococcus aureus [21]): Active
Activity (Staphylococcus aureus [22]): Active
Ratio (Staphylococcus aureus [23]): 5
MBC (Streptococcus mutans [24]): 185 µg/mL (≈ 581 µM)
Activity (Streptococcus mutans [25]): 7.5 - 8 log10CFU/ml
Ratio (Staphylococcus aureus [26]): 5
Activity (Staphylococcus aureus [27]): Active
Activity (Streptococcus mutans [28]): Active
Activity (Staphylococcus aureus [29]): Active
Activity (Staphylococcus aureus [30]): Active
Ratio (Staphylococcus aureus [31]): 5
Activity (Streptococcus mutans [32]): Active
Activity (Streptococcus mutans [33]): Active
Activity (Streptococcus mutans [34]): Active
Activity (Staphylococcus aureus [35]): Active
Activity (Staphylococcus aureus [36]): 94.26%
MBIC (Staphylococcus aureus [36]): 16 µg/mL

Compound: CN[C@@H]1[C@@H](O)[C@@H](O[C@@H]2[C@@H](O)[C@H](O[C@H]3O[C@H](CN)CC[C@H]3N)[C@@H](N)C[C@H]2N)OC[C@]1(C)O.O=S(=O)(O)O
MIC (Streptococcus mutans [2]): 10 µg/mL
MIC (Staphylococcus aureus [3]): 135 µg/mL
Activity (Klebsiella pneumoniae [37]): 89.92%
MBIC (Klebsiella pneumoniae [37]): 3 µg/mL
MIC (Klebsiella pneumoniae [6]): 3 µg/mL
Activity (Streptococcus mutans [9]): 76.42%
MBIC (Streptococcus mutans [9]): 10 µg/mL
MIC (Proteus mirabilis [38]): 6.25 µg/mL
Activity (Proteus mirabilis [39]): 89.22%
MBIC (Proteus mirabilis [39]): 6.25 µg/mL
Activity (Staphylococcus aureus [36]): 90.8%
MBIC (Staphylococcus aureus [36]): 150 µg/mL

Compound: CC1(C)S[C@@H]2[C@H](N)C(=O)N2[C@H]1C(=O)O
MIC (Streptococcus mutans [2]): 70 µg/mL (≈ 324 µM)
MIC (Staphylococcus aureus [3]): 135 µg/mL (≈ 624 µM)
Activity (Klebsiella pneumoniae [37]): 68.9%
MBIC (Klebsiella pneumoniae [37]): 35 µg/mL
MIC (Klebsiella pneumoniae [6]): 35 µg/mL (≈ 162 µM)
Activity (Streptococcus mutans [9]): 29.31%
MBIC (Streptococcus mutans [9]): 7 µg/mL
MIC (Proteus mirabilis [38]): 35 µg/mL (≈ 162 µM)
Activity (Proteus mirabilis [39]): 89.2%
MBIC (Proteus mirabilis [39]): 35 µg/mL
Activity (Staphylococcus aureus [36]): 60.46%
MBIC (Staphylococcus aureus [36]): 150 µg/mL

MIC (Streptococcus mutans [2]): inactive
Compound: CC1=CCC[C@@H]2[C@@](C)(CC/C(C)=C/C(=O)O)[C@H](C)CC[C@@]12C

Compound: CC1=CCC[C@@H]2[C@@](C)(CCC3=CC(=O)OC3Nc3cccc(F)c3)[C@H](C)CC[C@@]12C (mixture of isomers)
MIC (Streptococcus mutans [2]): 60 µg/mL
MIC (Staphylococcus aureus [3]): 60 µg/mL
MIC (Klebsiella pneumoniae [6]): inactive
Activity (Streptococcus mutans [9]): 73.17%
MBIC (Streptococcus mutans [9]): 55 µg/mL
MIC (Proteus mirabilis [38]): 125 µg/mL
Activity (Proteus mirabilis [39]): 68.75%
MBIC (Proteus mirabilis [39]): 110 µg/mL
Activity (Proteus mirabilis [40]): Active
Activity (Klebsiella pneumoniae [41]): Active
Activity (Staphylococcus aureus [36]): 83.12%
